Experimental findings from ChEMBL document CHEMBL4002576, “Tetrahydropyranodiquinolin-8-amines as new, non hepatotoxic, antioxidant, and acetylcholinesterase inhibitors for Alzheimer's disease therapy” (Eur J Med Chem, 2017) are described below.

pIC50, pKi: −log10 of the molar value. Active and inactive are the calls of the source. No cut-off for these calls is given here.

In data set [1] the target is T1, Acetylcholinesterase (Homo sapiens, UniProt P22303). As to the kind of experiment: Inhibition of recombinant human AChE expressed in HEK293 cells using acetylthiocholine iodide as substrate pretreated for 5 mins followed by substrate addition measured after 5 mins by spectrophotometry based Ellman method. The following applies: for pIC50: read-out: IC50; for IC50: hek293.

Another data set has as its target Cholinesterase (Equus caballus, UniProt P81908). Briefly: Inhibition of horse serum BuChE using butyrylthiocholine as substrate pretreated for 10 mins followed by substrate addition measured after 15 mins by spectrophotometry based Ellman method. The following applies: for pIC50: read-out: IC50. (In general: In Ellman's method for cholinesterases, released thiocholine reacts with DTNB.)

The target of data set [2] is T1, Acetylcholinesterase. As to the kind of experiment: Non-competitive inhibition of recombinant human AChE expressed in HEK293 cells using varying levels of acetylthiocholine iodide as substrate pretreated for 5 mins followed by substrate addition measured after 5 mins by Lineweaver-burk plot analysis.
A short description of data set [3]: Metal chelating activity assessed as compound-Cu2+ complex formation at 10 uM in presence of CuSO4 after 20 hrs by UV-visible spectrophotometric analysis. It is filed as functional.
Data set [4] is described as follows: Metal chelating activity assessed as compound-Cu2+ complex formation at 10 uM in presence of CuSO4 after 60 mins by UV-visible spectrophotometric analysis. It is filed as functional.
Data set [5] is described as follows: Metal chelating activity assessed as compound-Fe2+ complex formation at 10 uM in presence of FeSO4 after 60 mins by UV-visible spectrophotometric analysis. It is filed as functional.
Data set [6] can be described thus: Metal chelating activity assessed as compound-Fe2+ complex formation at 10 uM in presence of FeSO4 after 20 hrs by UV-visible spectrophotometric analysis. It is filed as functional.
Data set [7] has as its target Acetylcholinesterase (Electrophorus electricus, UniProt O42275).
Description: Inhibition of Electrophorus electricus AChE using acetylthiocholine iodide as substrate pretreated for 10 mins followed by substrate addition measured after 15 mins by spectrophotometry based Ellman method
A short description of the next data set: physchem. As to conditions: PAMPA, pH 7.4. (PAMPA measures passive passage across an artificial lipid membrane.)
Data set [8] can be described thus: in vitro. As to conditions: human, primary hepatocytes.
Description: Cytotoxicity against human primary hepatocytes assessed as cell viability at 0.1 uM measured after 2 hrs by trypan blue assay relative to control
Data set [9] is described as follows: in vitro. As to conditions: human, primary hepatocytes. The source holds these as a separate data set.
Description: Cytotoxicity against human primary hepatocytes assessed as cell viability at 1 uM measured after 2 hrs by trypan blue assay relative to control
A short description of data set [10]: in vitro. The following applies: human, primary hepatocytes. This is another data set of the same source.
Description: Cytotoxicity against human primary hepatocytes assessed as cell viability at 3 uM measured after 2 hrs by trypan blue assay relative to control
Data set [11] can be described thus: in vitro. The following applies: human, primary hepatocytes. This is another data set of the same source.
Description: Cytotoxicity against human primary hepatocytes assessed as cell viability at 10 uM measured after 2 hrs by trypan blue assay relative to control
Data set [12] is described as follows: in vitro. The following applies: human, primary hepatocytes. This is another data set of the same source.
Description: Cytotoxicity against human primary hepatocytes assessed as cell viability at 30 uM measured after 2 hrs by trypan blue assay relative to control
Data set [13] in a line: in vitro. As to conditions: human, primary hepatocytes. This is another data set of the same source.
Description: Cytotoxicity against human primary hepatocytes assessed as cell viability at 100 uM measured after 2 hrs by trypan blue assay relative to control

T1 sequence (P22303 whole entry): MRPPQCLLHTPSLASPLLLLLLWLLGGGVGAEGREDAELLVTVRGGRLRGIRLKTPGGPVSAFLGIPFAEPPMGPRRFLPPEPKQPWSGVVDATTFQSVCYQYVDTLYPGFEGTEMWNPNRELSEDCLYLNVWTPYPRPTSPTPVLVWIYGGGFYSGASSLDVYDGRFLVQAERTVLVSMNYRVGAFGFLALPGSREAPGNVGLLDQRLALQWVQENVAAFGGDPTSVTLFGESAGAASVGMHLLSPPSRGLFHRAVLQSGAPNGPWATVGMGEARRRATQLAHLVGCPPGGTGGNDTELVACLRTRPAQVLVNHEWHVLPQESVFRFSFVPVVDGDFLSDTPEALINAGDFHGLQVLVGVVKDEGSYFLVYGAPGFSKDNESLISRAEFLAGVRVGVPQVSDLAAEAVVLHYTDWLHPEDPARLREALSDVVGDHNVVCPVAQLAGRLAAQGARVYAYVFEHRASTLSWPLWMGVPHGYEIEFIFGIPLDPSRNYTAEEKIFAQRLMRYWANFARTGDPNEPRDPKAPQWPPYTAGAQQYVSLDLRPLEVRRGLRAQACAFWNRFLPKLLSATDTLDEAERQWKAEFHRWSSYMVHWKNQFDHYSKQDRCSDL
Cholinesterase, sequence (P81908 whole entry): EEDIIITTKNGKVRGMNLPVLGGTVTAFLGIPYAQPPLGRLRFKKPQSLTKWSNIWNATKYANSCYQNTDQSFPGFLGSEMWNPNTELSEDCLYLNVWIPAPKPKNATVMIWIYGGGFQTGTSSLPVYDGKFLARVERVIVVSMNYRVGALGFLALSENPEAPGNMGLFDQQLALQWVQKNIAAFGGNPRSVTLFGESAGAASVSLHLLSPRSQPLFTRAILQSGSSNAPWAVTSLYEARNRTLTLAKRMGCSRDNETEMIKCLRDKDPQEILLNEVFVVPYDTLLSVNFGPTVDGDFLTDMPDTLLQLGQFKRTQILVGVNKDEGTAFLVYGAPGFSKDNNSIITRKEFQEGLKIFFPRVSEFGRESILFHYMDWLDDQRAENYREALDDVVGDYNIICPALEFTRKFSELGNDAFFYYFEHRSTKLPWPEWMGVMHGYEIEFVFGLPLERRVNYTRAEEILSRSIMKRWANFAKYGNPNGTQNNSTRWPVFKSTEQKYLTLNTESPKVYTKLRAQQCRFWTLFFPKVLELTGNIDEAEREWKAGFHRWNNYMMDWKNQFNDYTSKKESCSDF
Acetylcholinesterase (Electrophorus electricus, UniProt O42275), sequence (O42275 whole entry): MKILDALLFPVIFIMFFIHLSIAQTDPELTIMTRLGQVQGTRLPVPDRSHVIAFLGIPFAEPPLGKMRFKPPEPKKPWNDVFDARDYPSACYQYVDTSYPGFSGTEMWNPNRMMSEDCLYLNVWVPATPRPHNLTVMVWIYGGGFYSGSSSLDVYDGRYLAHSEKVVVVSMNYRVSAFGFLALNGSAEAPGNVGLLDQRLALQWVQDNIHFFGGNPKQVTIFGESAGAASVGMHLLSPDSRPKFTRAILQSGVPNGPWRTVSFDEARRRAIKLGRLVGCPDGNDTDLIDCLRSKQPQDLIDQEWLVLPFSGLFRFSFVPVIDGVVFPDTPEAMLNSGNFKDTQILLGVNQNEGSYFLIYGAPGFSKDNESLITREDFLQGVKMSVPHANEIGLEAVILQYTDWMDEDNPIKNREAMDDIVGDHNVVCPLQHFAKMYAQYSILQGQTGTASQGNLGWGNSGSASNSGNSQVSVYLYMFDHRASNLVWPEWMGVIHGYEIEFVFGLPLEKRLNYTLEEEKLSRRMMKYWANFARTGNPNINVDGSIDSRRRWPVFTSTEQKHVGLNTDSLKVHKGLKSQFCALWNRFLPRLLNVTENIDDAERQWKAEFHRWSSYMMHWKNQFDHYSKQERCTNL
Description for physchem: Permeability of the compound at 100 uM at pH 7.4 measured after 6 hrs by PAMPA

By pIC50 is commonly meant −log10 of the IC50, conventionally taken in molar units. As a reminder, the pKi is the Ki on a negative log10 scale, so that one unit is a factor of ten. As a reminder, the Papp is a coefficient for how fast a substance crosses the barrier. As usually defined, the viability is a per cent measure of how many cells are alive, often set against a control. Read a low viability as a greater loss of cells. As for `COc1cccc(C2c3ccc4cccnc4c3Oc3nc4c(c(N)c32)CCCC4)c1` (stereo not drawn), the pIC50 on Acetylcholinesterase [1] was 6.12; on Cholinesterase, 5.89; against Acetylcholinesterase [7], 7.40. Further, the pKi at Acetylcholinesterase [2] is 6.06. The result in data set [3], in data set [4], in data set [5] and in data set [6] was inactive. The compound also returned a Papp at 6 h, 100 µM in “physchem” of 5.41 ×10⁻⁶ cm/s. Further, the viability at 2 h, 0.1 µM in “in vitro [8]” is 89%. The compound further came in with a viability at 2 h, 1 µM in “in vitro [9]” of 84%. The compound also yielded a viability at 2 h, 3 µM in “in vitro [10]” of 83%. In the data set “in vitro [11]”, this compound returned a viability at 2 h, 10 µM of 89%. Further, the viability at 2 h, 30 µM in “in vitro [12]” stood at 99%. The same compound gave a viability at 2 h, 100 µM in the data set “in vitro [13]” of 89%.

As for `Nc1c2c(nc3c1C(c1c(Cl)cccc1Cl)c1ccc4cccnc4c1O3)CCCC2` (stereo not drawn), at Cholinesterase, the IC50 result was “Not Active”. In addition, the pIC50 against Acetylcholinesterase [7] was 7.00.

With `Nc1c2c(nc3c1C(c1ccccc1)c1ccc4cccnc4c1O3)CCCC2` (stereo not drawn), the pIC50 at Acetylcholinesterase [1] was 5.76; on Cholinesterase it was 5.95; against Acetylcholinesterase [7], 7.22.

On to `COc1ccc(C2c3ccc4cccnc4c3Oc3nc4c(c(N)c32)CCCC4)cc1` (stereo not drawn), for which the pIC50 is 5.82 on Acetylcholinesterase [1], 5.89 at Cholinesterase and 7.40 at Acetylcholinesterase [7].

For `Nc1c2c(nc3c1C(c1ccccc1Br)c1ccc4cccnc4c1O3)CCCC2` (stereo not drawn), the pIC50 was 6.68 at Cholinesterase and 6.85 against Acetylcholinesterase [7].

For the compound `Nc1c2c(nc3c1C(c1ccc([N+](=O)[O-])cc1)c1ccc4cccnc4c1O3)CCCC2` (stereo not drawn), at Cholinesterase, the IC50 entry is recorded as “Not Active”. Also, the pIC50 on Acetylcholinesterase [7] was 6.62.

For `Nc1c2c(nc3c1C(c1cccc(F)c1)c1ccc4cccnc4c1O3)CCCC2` (stereo not drawn), the pIC50 at Acetylcholinesterase [1] is 5.66; at Acetylcholinesterase [7], 7.05. For the same compound, on Cholinesterase, the IC50 entry is listed as “Not Active”.

Turning to `Nc1c2c(nc3c1C(c1ccccc1F)c1ccc4cccnc4c1O3)CCCC2` (stereo not drawn), the pIC50 on Cholinesterase was 6.20; against Acetylcholinesterase [7], 6.96.

As to `COc1ccccc1C1c2ccc3cccnc3c2Oc2nc3c(c(N)c21)CCCC3` (stereo not drawn), the negative logarithm of the IC50 (pIC50) on Cholinesterase was 5.82; on Acetylcholinesterase [7], 7.10.

For `Nc1c2c(nc3c1C(c1cccnc1Br)c1ccc4cccnc4c1O3)CCCC2` (stereo not drawn), the IC50 result at Acetylcholinesterase [1] is “Not Active”. The values for the pIC50 on Cholinesterase and against Acetylcholinesterase [7] were 5.54 and 6.72, respectively.

On to `Nc1c2c(nc3c1C(c1ccncc1)c1ccc4cccnc4c1O3)CCCC2` (stereo not drawn), for which the IC50 entry on Acetylcholinesterase [1] and on Cholinesterase was “Not Active” each time. The compound further had a pIC50 on Acetylcholinesterase [7] of 6.33.

In the case of `Cc1ccc(C2c3ccc4cccnc4c3Oc3nc4c(c(N)c32)CCCC4)cc1` (stereo not drawn), the pIC50 is 5.55 on Acetylcholinesterase [1], 6.28 on Cholinesterase and 7.40 against Acetylcholinesterase [7].
